Test results as given in patent publication US8487001B2, “Medium-chain length fatty acids, glycerides and analogues as neutrophil survival and activation factors” (ProMetic BioSciences Inc., priority 2001, dated 2013).
Entries after “also recorded” stand apart in the source; their conditions may differ.

Key:
bone marrow cells = assay: In vivo chemoprotection: bone marrow cell count; conditions: for effect on bone marrow cell count, post-treatment: post-treatment per o.s. on day 1, 2, 3 and 4
Description: (§1) To examine the immunoprotective effect of MCT or other compounds, mice were pre-treated orally at day-3, -2 and -1 or treated intravenously at day 0 with the test compound. Mice were sacrificed at day +5 by cardiac puncture and cervical dislocation. Then, cell suspensions were prepared from thymus, spleen and bone marrow as follow.
(§2) Tissues were crushed in PBS buffer and contaminating erythrocytes were lysed in ACK buffer (155 mM NH4Cl, 12 mM NaHCO3, 0.1 mM EDTA, pH 7.3) for 5 minutes. Cells were then collected by centrifugation and washed three times in PBS and resuspended in tissue culture medium. Cells were counted on a hemacytometer.
(§3) Chemoprotection studies were performed as described in example 16 except that mice were (post)-treated with MCT, sodium caprylate, sodium caprate or capric acid per o.s. on day 1, 2, 3 and 4.

spleen cells = assay: In vivo chemoprotection: spleen cell count
Description: as §1, §2, §3

spleen cell subsets = assay: Spleen immunophenotyping (flow cytometry of cell surface markers); format: in vivo, C57BL/6 mice; conditions: CY (200 mg/kg) immunosuppressed mice
Description: (§4) Female, 6- to 8-week old, C57BL/6 mice were pre-treated on day -3, -2 and -1 per o.s. or intravenously at day 0 with different concentrations of MCT. Immunophenotyping was also performed on immunosuppressed animals. […] Mice were sacrificed on day 5 by cardiac puncture. Blood and spleens were collected and cell suspensions prepared and erythrocytes lysed in ACK buffer (155 mM NH4Cl, 12 mM NaHCO3, 0.1 mM EDTA, pH 7.3) for 5 minutes. The cells were washed three times in PBS, pH 7.4 and resuspended in tissue culture medium. The cells were then incubated for 45 minutes on ice with fluorescein isothiocyanate (FITC) or phycoerythrin (PE) conjugated cell surface marker according to the manufacturer's (Gibco/BRL, Cedarlane, Boehringer Mannheim) recommendation. The cells were then washed in PBS, fixed with 1% paraformaldehyde and analyzed with a Coulter XL flow cytometer. Analysis of the cell subsets was undertaken by determination of standard cell surface markers which were as follows: TCR (T-cell receptor), CD4 (T helper), CD8 (T cytotoxic/suppressor), CD11b (macrophage), NK (NK cells) and Ly5 (B-cells). Bone marrow cells were obtained as described in example 15. Cells were stained by a 45 minutes incubation of FITC or PE conjugated cell surface marker according to the manufacturer's recommendation. The cells were then washed in PBS, fixed with 1% paraformaldehyde and analyzed with a Coulter XL flow cytometer. Analysis of the cell subsets was undertaken by determination of standard cell surface markers which were as follows: CD34 (hematopoietic progenitor cells), CD41 (platelets, megakaryocytes), CD13 (myelomonocytic stem cells, myelocytes, promonocytes) and CD38 (lymphoid stem cells, pro-B, pre-B).

blood cell subsets = assay: Blood immunophenotyping (flow cytometry of cell surface markers); format: in vivo, C57BL/6 mice; conditions: CY (200 mg/kg) immunosuppressed mice; for Blood Immunophenotyping: LY5−TCR− cell subset (relative percentage): Table 14
Description: as §4

bone marrow cell subsets = assay: Bone marrow immunophenotyping (CD34, CD13, CD41, CD38); format: in vivo, C57BL/6 mice; conditions: for Bone marrow immunophenotyping: CY-treated mice, test substances compared to cyclophosphamide alone; for % Cells CD13+ (bone marrow) / % Cells CD34+ (bone marrow) / % Cells CD38+ (bone marrow) / % Cells CD41+ (bone marrow): Table 15, CY (200 mg/kg) immunosuppressed mice, CY + test substance (Cyclophosphamide line = CY alone)
Description: as §4
The effect of MCT, sodium caprylate, sodium caprate on bone marrow immunophenotyping was assessed by the protocol described in example 26.

[1] = CY-treated mice, protocol of example 16 (pre-treatment)
[2] = Table 5, CY-treated mice, CY + test compound (CY line = CY alone), protocol of example 16
[3] = Table 11, CY + capric acid 3.125 μMole post-treatment per o.s. day 1, 2, 3 and 4
[4] = Table 11, CY + capric acid 6.25 μMole post-treatment per o.s. day 1, 2, 3 and 4
[5] = Table 11, CY + capric acid 12.5 μMole post-treatment per o.s. day 1, 2, 3 and 4
[6] = Table 7, CY-treated mice, CY + test compound 6.25 μMole pre-treatment (CY line = CY alone)
[7] = Table 10, CY-treated mice, post-treatment per o.s. on day 1, 2, 3 and 4 with test substance 12.5 μM (CY line = CY alone)
[8] = Table 9, CY-immunosuppressed mice, CY + test compound 6.25 μMole (CY line = CY alone)
[9] = Table 6, CY-treated mice, CY + test compound (CY line = CY alone), protocol of example 16
[10] = Table 16, CY-treated mice, CY + test compound (CY line = CY alone), protocol of example 16
[11] = Table 8, CY-immunosuppressed mice, CY + test compound 6.25 μM (CY line = CY alone)
[12] = Table 17, CY-treated mice, CY + test compound (CY line = CY alone), protocol of example 16

## O=c1[nH]cc(F)c(=O)[nH]1 [5-FU, 5-fluorouracil, reference compound]
Bone marrow cells; mouse, in vivo, iv
  effect of cytotoxic drug on bone marrow cell count compared to the control: depressed the bone marrow cell count compared to the control
Spleen cells; mouse, in vivo, iv
  effect of cytotoxic drug on spleen cell count compared to the control: reduce significantly the spleen cell count compared to the control

## CCCCCCCCCC(=O)O [capric acid]
Bone marrow cells; CY-treated mice
  effect on bone marrow cell count, post-treatment: weak increase in bone marrow cell count
Bone marrow cells; [1]
  effect on bone marrow cell count compared to cyclophosphamide treated mice: significantly enhances the bone marrow cell counts
Bone marrow cells; [2]
  Bone Marrow # Cells (×10^6): 32 ± 2.71 ×10^6
Bone marrow cells; [3]
  Bone Marrow # Cells (×10^6): 37 ± 7.8 ×10^6
Bone marrow cells; [4]
  Bone Marrow # Cells (×10^6): 38 ± 4.6 ×10^6
Bone marrow cells; [5]
  Bone Marrow # Cells (×10^6): 38 ± 7.4 ×10^6
Spleen cells; CY-treated mice, post-treatment per o.s. on day 1, 2, 3 and 4
  effect on spleen cell count, post-treatment: significant increase in spleen cell count
Spleen cells; [1]
  effect on spleen cell count compared to cyclophosphamide treated mice: No significant effect
Spleen cells; [2]
  Spleen # Cells (×10^6): 27 ± 8.4 ×10^6
Spleen cells; [3]
  Spleen # Cells (×10^6): 31 ± 8.7 ×10^6
Spleen cells; [4]
  Spleen # Cells (×10^6): 25 ± 6.3 ×10^6
Spleen cells; [5]
  Spleen # Cells (×10^6): 36 ± 7.8 ×10^6
Spleen cell subsets
  Spleen Immunophenotyping: effect compared to cyclophosphamide alone (words): no significant effect compared to cyclophosphamide alone
Spleen cell subsets; listed as Capric acid
  Spleen Immunophenotyping: effect compared to cyclophosphamide alone (words): No significant effect
Blood cell subsets
  Blood Immunophenotyping: effect compared to cyclophosphamide alone (words): significantly increase the relative percentage of LY5-TCR- on blood
Blood cell subsets; compound 6.25 μM
  Blood Immunophenotyping: LY5−TCR− cell subset (relative percentage): 61.52 ± 5.16
Blood cell subsets; compound 12.5 μM
  Blood Immunophenotyping: LY5−TCR− cell subset (relative percentage): 70.79 ± 3.95

## CCCCCCCC(=O)O [caprylic acid]
Bone marrow cells; [2]
  Bone Marrow # Cells (×10^6): 26 ± 3.58 ×10^6
Spleen cells; [1]
  effect on spleen cell count compared to cyclophosphamide treated mice: No significant effect
Spleen cells; [2]
  Spleen # Cells (×10^6): 28 ± 6.4 ×10^6

## CCCCCCCCCC(=O)OCC [ethyl caprate]
Bone marrow cells; Table 18, CY-treated mice, CY + test compound (CY line = CY alone), protocol of example 16
  Bone Marrow # Cells (×10^6): 27.5 ± 4.4 ×10^6

## CCCCCCCCCCCC(=O)O [lauric acid]
Bone marrow cells; [1]
  effect on bone marrow cell count compared to cyclophosphamide treated mice: Significant increases in proliferation or protection of bone marrow and spleen cell counts
Bone marrow cells; [6]
  Bone Marrow # Cells (×10^6): 42 ± 7.8 ×10^6
Spleen cells; [1]
  effect on spleen cell count compared to cyclophosphamide treated mice: Significant increases in proliferation or protection of bone marrow and spleen cell counts
Spleen cells; [6]
  Spleen # Cells (×10^6): 32 ± 5 ×10^6

## CCCCCCCCC(=O)O [nonanoic acid]
Bone marrow cells; [1]
  effect on bone marrow cell count compared to cyclophosphamide treated mice: weak (not significant) activity on immune cell counts
Bone marrow cells; [6]
  Bone Marrow # Cells (×10^6): 36 ± 5.6 ×10^6
Spleen cells; [1]
  effect on spleen cell count compared to cyclophosphamide treated mice: weak (not significant) activity on immune cell counts
Spleen cells; [6]
  Spleen # Cells (×10^6): 28 ± 4 ×10^6

## CCCCCCCCCC(=O)[O-].[Na+] [sodium caprate]
Bone marrow cells; CY-treated mice
  effect on bone marrow cell count, post-treatment: significant increase in bone marrow cell count
Bone marrow cells; [1]
  effect on bone marrow cell count compared to cyclophosphamide treated mice: significant increase in proliferation or protection of bone marrow cell count
Bone marrow cells; [7]
  Bone Marrow # Cells (×10^6): 29 ± 4.45 ×10^6
Bone marrow cell subsets
  Bone marrow immunophenotyping: amplifies the number of CD13+ lineage
  % Cells CD13+ (bone marrow): 4.7 ± 1.7%
  % Cells CD34+ (bone marrow): 9.1 ± 3.1%
  % Cells CD38+ (bone marrow): 44.3 ± 22.8%
  % Cells CD41+ (bone marrow): 3.7 ± 0.7%
Spleen cells; [7]
  Spleen # Cells (×10^6): 28 ± 6.3 ×10^6

## CCCCCC(=O)[O-].[Na+] [sodium caproate]
Bone marrow cells; [8]
  Bone Marrow # Cells (×10^6): 39 ± 17.9 ×10^6
Bone marrow cells; mouse, in vivo
  effect on bone marrow cell count compared to cyclophosphamide treated mice: weak (not significant) activity
Spleen cells; [8]
  Spleen # Cells (×10^6): 35 ± 10.6 ×10^6
Spleen cells; mouse, in vivo
  effect on spleen cell count compared to cyclophosphamide treated mice: weak (not significant) activity
Blood cell subsets
  Blood Immunophenotyping: effect compared to cyclophosphamide alone (words): significantly increase the relative percentage of LY5-TCR- on blood
Blood cell subsets; compound 6.25 μM
  Blood Immunophenotyping: LY5−TCR− cell subset (relative percentage): 52.43 ± 10.16

## CCCCCCCC(=O)[O-].[Na+] [sodium caprylate]
Bone marrow cells; CY-treated mice
  effect on bone marrow cell count, post-treatment: significant increase in bone marrow cell count
Bone marrow cells; [1]
  effect on bone marrow cell count compared to cyclophosphamide treated mice: significant increase in proliferation or protection of bone marrow cell count
Bone marrow cells; [7]
  Bone Marrow # Cells (×10^6): 26 ± 5.33 ×10^6
Bone marrow cell subsets
  Bone marrow immunophenotyping: amplifies the number of CD13+ lineage
  % Cells CD13+ (bone marrow): 4.9 ± 1.2%
  % Cells CD34+ (bone marrow): 11.2 ± 1.3%
  % Cells CD38+ (bone marrow): 36 ± 9.7%
  % Cells CD41+ (bone marrow): 4.6 ± 1.3%
Spleen cells; [7]
  Spleen # Cells (×10^6): 36 ± 12.5 ×10^6

## CCCCCCCCCC(=O)OCC(COC(=O)CCCCCCCCC)OC(=O)CCCCCCCCC [tricaprin]
Bone marrow cells; [1]
  effect on bone marrow cell count compared to cyclophosphamide treated mice: efficacious in the proliferation or protection of bone marrow cell counts
Bone marrow cells; [9]
  Bone Marrow # Cells (×10^6): 31 ± 3.8 ×10^6
Spleen cells; [1]
  effect on spleen cell count compared to cyclophosphamide treated mice: No significant effect
Spleen cells; [9]
  Spleen # Cells (×10^6): 38 ± 6.8 ×10^6

## CCCCCC(=O)OCC(COC(=O)CCCCC)OC(=O)CCCCC [tricaproin]
Bone marrow cells; [1]
  effect on bone marrow cell count compared to cyclophosphamide treated mice: weak (not significant) activity
Bone marrow cells; [8]
  Bone Marrow # Cells (×10^6): 29 ± 4.1 ×10^6
Spleen cells; [1]
  effect on spleen cell count compared to cyclophosphamide treated mice: weak (not significant) activity
Spleen cells; [8]
  Spleen # Cells (×10^6): 37 ± 8.7 ×10^6

## CCCCCCCCCC(=O)NC(COC(=O)CCCCCCCCC)COC(=O)CCCCCCCCC [tridecanoyl serinol, 1,2,3-O,N,O-Tridecanoyl serinol]
Bone marrow cells; [1]
  effect on bone marrow cell count compared to cyclophosphamide treated mice: No significant effect
Bone marrow cells; [10]
  Bone Marrow # Cells (×10^6): 28 ± 4.6 ×10^6
Spleen cells; [1]
  effect on spleen cell count compared to cyclophosphamide treated mice: significantly enhances the spleen cell counts
Spleen cells; [10]
  Spleen # Cells (×10^6): 42 ± 8.4 ×10^6

## CCCCCCCCCCCC(=O)OCC(COC(=O)CCCCCCCCCCC)OC(=O)CCCCCCCCCCC [trilaurin]
Bone marrow cells; [1]
  effect on bone marrow cell count compared to cyclophosphamide treated mice: weak (not significant) activity
Bone marrow cells; [11]
  Bone Marrow # Cells (×10^6): 31 ± 6.8 ×10^6
Spleen cells; [1]
  effect on spleen cell count compared to cyclophosphamide treated mice: weak (not significant) activity
Spleen cells; [11]
  Spleen # Cells (×10^6): 28 ± 19.5 ×10^6
Spleen cell subsets
  Spleen Immunophenotyping: effect compared to cyclophosphamide alone (words): enhance the relative percentage of CD11+; also recorded: induces a significant increase in the LY5-TCR- and NK+ cell subsets
Spleen cell subsets; Table 14, compound 6.25 μM
  Spleen Immunophenotyping: CD11+ cell subset (relative percentage): 43.94 ± 4.78
  Spleen Immunophenotyping: LY5−TCR− cell subset (relative percentage): 77.86 ± 2.94
  Spleen Immunophenotyping: NK+ cell subset (relative percentage): 17.46 ± 5.80
Blood cell subsets
  Blood Immunophenotyping: effect compared to cyclophosphamide alone (words): no significant effect compared to cyclophosphamide alone
Blood cell subsets; listed as Trilaurin
  Blood Immunophenotyping: effect compared to cyclophosphamide alone (words): No significant effect

## CCCCCCCCCC(=O)OC1C(C)OC(OC)C(OC(=O)CCCCCCCCC)C1OC(=O)CCCCCCCCC [α-methyl tridecanoyl-L-fucopyranose, α-O-Methyl-2,3,4,—O,O,O-tridecanoyl-L-fucopyranose]
Bone marrow cells; [12]
  Bone Marrow # Cells (×10^6): 30.4 ± 9.3 ×10^6
Bone marrow cells; mouse, in vivo
  effect on bone marrow cell count compared to cyclophosphamide treated mice: lack of activity

## CCCCCCCCCC(=O)OC1C(C)OC(OC)C(OC(=O)CCCCCCCCC)C1OC(=O)CCCCCCCCC [β-methyl tridecanoyl-L-fucopyranose, β-O-Methyl-2,3,4,—O,O,O-tridecanoyl-L-fucopyranose]
Bone marrow cells; [12]
  Bone Marrow # Cells (×10^6): 34.6 ± 8.5 ×10^6
Bone marrow cells; mouse, in vivo
  effect on bone marrow cell count compared to cyclophosphamide treated mice: weak (not significant) activity on bone marrow cell counts
